Laboratory results published in patent publication US10105365B2, “Solid antiviral dosage forms” (AbbVie Inc., priority 2014, dated 2018).

Assays:
[1] = Human pharmacokinetic study, Example 5 Arm I (single dose, replicated crossover); assay type: in vivo
Protocol: (§1) A Phase 1, non-fasting, open-label, two-arm, four-period, randomized, crossover study was conducted to compare and characterize the pharmacokinetics of (i) Triple Tablet when co-administered with Single Tablet, and (ii) Formulation C5-12 as discussed below. Part 1 was a single dose, two-treatment, randomized, four period, two sequence replicated crossover study with 88 subjects. Doses in the four periods were separated by at least 10 days. Part 2 was a multiple-dose, two-treatment, two period, randomized crossover study with 66 subjects. Dosing in each period was 14 days and doses in the two periods were separated by at least 10 days.
(§2) Adult male and female subjects in general good health were selected to participate in the study according to the selection criteria. Subjects meeting the selection criteria were randomly assigned to one of the sequences of Regimens A and B (four sequences for Arm I and two sequences for Arm II) as shown below in Table 5-A.
(§3) Study drug was administered as provided below in Table 5-B.
(§4) Each study regimen was taken orally with approximately 240 mL of water approximately 30 minutes after the start of standardized breakfast. Study regimens were administered orally in the morning on Study Day 1 of each period. Serial blood samples for pharmacokinetic analysis were collected 72 hours after dosing in each period.
Tables 5-C, 5-D, 5-E, and 5-F below report the Arm I pharmacokinetic data for Formulation C5-12 (separately reported for each of Compounds 1, 2, 3, and 4). Table 5-G presents the results of a relative bioavailability and 90% confidence interval analysis of the pharmacokinetic data for Formulation C5-12 relative to the reference regimen. The data presented in Tables 5-C through 5-G are preliminary data and are subject to database lock and final data verification by the statistician.

[2] = Human pharmacokinetic study, Example 5 Arm II (multiple dose, crossover); assay type: in vivo; details: Example 5 Arm II; for AUC: read-out: AUC24, geometric mean; for concentration at 24 h: read-out: C24, geometric mean; for Cmax: read-out: Cmax, geometric mean
Protocol: as §1, §2, §3, §4

[3] = Sink Conditions dissolution testing of Formulation C5-12; assay type: physicochemical; details: N = 6
Protocol: The release profiles of Formulation C5-12 of Example 1 were evaluated in a Sink Conditions dissolution study. The study was conducted in 900 mL of dissolution medium using a standard USP dissolution Apparatus 2 (paddle) operating at 100 RPM at 37±0.5° C. The dissolution medium was a 0.05 M sodium phosphate buffer pH 6.8 with 15 mM cTAB as a surfactant.

[4] = Human pharmacokinetic study, Example 4 Arm III (14-day multiple dose, steady state); assay type: in vivo
[5] = Solubility (general statement); assay type: physicochemical; details: aqueous
[6] = Human pharmacokinetic study, Example 4 Arm II (single dose, crossover); assay type: in vivo; details: both sexes, human, oral, Example 4 Arm II, single dose, non-fasting, N = 13; for half-life / AUC(0-t) / AUC(0-inf) / Tmax: blood; for AUC(0-t): read-out: AUCt, geometric mean; for AUC(0-inf): read-out: AUC∞, geometric mean; for Tmax: read-out: Tmax; for concentration at 24 h / Cmax: in vivo; for concentration at 24 h: read-out: C24, geometric mean; for Cmax: read-out: Cmax, geometric mean
Protocol: Formulation C5-12 and a second formulation were tested in Arm II of the study. Adult male and female subjects (N=30 for combined Arm I and Arm II studies) in general good health were selected to participate in the study according to the selection criteria. Subjects meeting the selection criteria were randomly assigned to one of the Regimen sequences as shown below in Table 4-A.
Study drug was administered as provided below in Table 4-B.
as §4, with “each period. For Regimen A the evening dose of the Single Tablet was taken orally with approximately 240 mL of water approximately 30 minutes after the start of the evening snack. Serial blood” for “each period. Serial blood”
The data presented in Tables 4-C through 4-G are preliminary data and are subject to database lock and final data verification.

[7] = Formulation C5-12 relative to the reference regimen
[8] = multiple dose 14 days, non-fasting, Regimen B (reference regimen): two Triple Tablets + one Single Tablet morning, one Single Tablet evening, N = 63
[9] = both sexes, human, blood, oral, 3 film-coated Formulation C5-12 tablets daily, multiple dose 14 days, non-fasting, Regimen A (C5-12): three film-coated Formulation C5-12 tablets daily, N = 63
[10] = both sexes, human, blood, oral, multiple dose 14 days, non-fasting, Regimen B (reference regimen): two Triple Tablets + one Single Tablet morning, one Single Tablet evening, N = 63
[11] = Formulation C5-12, Day 14 versus Day 1
[12] = human, in vivo, oral, 3 Formulation C5-12 tablets daily, three Formulation C5-12 tablets daily for 14 days, non-fasting, Day 14, N = 14
[13] = 3 Formulation C5-12 tablets, Regimen E (C5-12): three Formulation C5-12 tablets in the morning
[14] = Regimen A (reference regimen): two Triple Tablets + one Single Tablet morning, one Single Tablet evening

## Cc1cnc(C(=O)N[C@H]2CCCCC/C=C\[C@@H]3C[C@@]3(C(=O)NS(=O)(=O)C3CC3)NC(=O)[C@@H]3C[C@@H](Oc4nc5ccccc5c5ccccc45)CN3C2=O)cn1 [Compound 1, (2R,6S,13aS,14aR,16aS,Z)-N-(cyclopropylsulfonyl)-6-(5-methylpyrazine-2-carboxamido)-5,16-dioxo-2-(phenanthridin-6-yloxy)-1,2,3,5,6,7,8,9,10,11,13a,14,14a,15,16,16a-hexadecahydrocyclopropa[e]pyrrolo[1,2-a][1,4]diazacyclopentadecine-14a-carboxamide]
[1]; [7]
  Cmax lower than Cmax for the reference regimen: 30%
[1]; both sexes, human, blood, oral, 3 film-coated Formulation C5-12 tablets, single dose, non-fasting, Regimen A (C5-12): three film-coated Formulation C5-12 tablets, N = 172, read-out: Cmax, geometric mean
  Cmax: 618 ng/mL
[1]; both sexes, human, in vivo, oral, 3 film-coated Formulation C5-12 tablets, single dose, non-fasting, Regimen A (C5-12): three film-coated Formulation C5-12 tablets, N = 172, read-out: AUCt, geometric mean
  AUC(0-t): 4460 ng·h/mL
[1]; both sexes, human, in vivo, oral, 3 film-coated Formulation C5-12 tablets, single dose, non-fasting, Regimen A (C5-12): three film-coated Formulation C5-12 tablets, N = 172, read-out: AUC∞, geometric mean
  AUC(0-inf): 4490 ng·h/mL
[1]; both sexes, human, in vivo, oral, 3 film-coated Formulation C5-12 tablets, single dose, non-fasting, Regimen A (C5-12): three film-coated Formulation C5-12 tablets, N = 172, read-out: Tmax, first value (geometric mean)
  Tmax: 5 h
[1]; both sexes, human, in vivo, oral, single dose, non-fasting, Regimen B (reference regimen): two Triple Tablets + one Single Tablet morning, one Single Tablet evening, N = 171
  half-life: 6.02 h
[1]; both sexes, human, in vivo, oral, single dose, non-fasting, Regimen B (reference regimen): two Triple Tablets + one Single Tablet morning, one Single Tablet evening, N = 171, read-out: AUCt, geometric mean
  AUC(0-t): 5470 ng·h/mL
[1]; both sexes, human, in vivo, oral, single dose, non-fasting, Regimen B (reference regimen): two Triple Tablets + one Single Tablet morning, one Single Tablet evening, N = 171, read-out: AUC∞, geometric mean
  AUC(0-inf): 5490 ng·h/mL
[1]; both sexes, human, in vivo, oral, single dose, non-fasting, Regimen B (reference regimen): two Triple Tablets + one Single Tablet morning, one Single Tablet evening, N = 171, read-out: Tmax, first value (geometric mean)
  Tmax: 5 h
[1]; single dose, non-fasting, Regimen A (C5-12): three film-coated Formulation C5-12 tablets, N = 172
  t1/2: 6.15 h
[1]; single dose, non-fasting, Regimen B (reference regimen): two Triple Tablets + one Single Tablet morning, one Single Tablet evening, N = 171
  Cmax, geometric mean: 935 ng/mL
[2]; multiple dose 14 days, non-fasting, Regimen A (C5-12): three film-coated Formulation C5-12 tablets daily, N = 63
  β, geometric mean: 0.129 h⁻¹
[2]; [8]
  Tmax, first value (geometric mean): 4.0 h
  β, geometric mean: 0.128 h⁻¹
[2]; Formulation C5-12, point estimate and 90% confidence interval for the GMR within 0.80-1.25
  Exposures (C24,ss and AUC24,ss) versus the reference regimen: bioequivalent
[2]; [7]
  Cmax,ss lower than Cmax,ss for the reference regimen: 27%
[2]; [9]
  half-life: 5.2 h
  AUC: 8900 ng·h/mL
  concentration at 24 h: 34.6 ng/mL
  Cmax: 1500 ng/mL
[2]; both sexes, human, blood, oral, 3 film-coated Formulation C5-12 tablets daily, multiple dose 14 days, non-fasting, Regimen A (C5-12): three film-coated Formulation C5-12 tablets daily, N = 63, read-out: Tmax, first value (geometric mean)
  Tmax: 5 h
[2]; [10]
  half-life: 5.3 h
  AUC: 9240 ng·h/mL
  concentration at 24 h: 30.4 ng/mL
  Cmax: 1950 ng/mL
[2]; both sexes, human, blood, oral, Regimen A (C5-12) vs. B (reference regimen), read-out: Relative bioavailability, C24, point estimate
  bioavailability at 24 h: 106%
[3]; 1 hour, 900 mL 0.05 M sodium phosphate buffer pH 6.8, 15 mM cTAB, USP Apparatus 2, 100 RPM, 37 °C
  % Released: 54%
[3]; 4 hours, pH 6.8 buffer, 15 mM cTAB
  % Released: 98%
[3]; 6 hours, pH 6.8 buffer, 15 mM cTAB
  % Released: 99%
[3]; 8 hours, pH 6.8 buffer, 15 mM cTAB
  % Released: 102%
[3]; 12 hours, pH 6.8 buffer, 15 mM cTAB
  % Released: 102%
[3]; 16 hours, pH 6.8 buffer, 15 mM cTAB
  % Released: 101%
[4]; [11]
  AUC24, RATIO: 2.28
  C24, RATIO: 1.00
  Cmax, RATIO: 2.52
[4]; human, in vivo, oral, 3 Formulation C5-12 tablets daily, three Formulation C5-12 tablets daily for 14 days, non-fasting, Day 1, N = 14
  Tmax: 6.7 h
[4]; human, in vivo, oral, 3 Formulation C5-12 tablets daily, three Formulation C5-12 tablets daily for 14 days, non-fasting, Day 1, N = 14, read-out: AUC24, geometric mean
  AUC: 4640 ng·h/mL
[4]; human, in vivo, oral, 3 Formulation C5-12 tablets daily, three Formulation C5-12 tablets daily for 14 days, non-fasting, Day 1, N = 14, read-out: C24, geometric mean
  concentration at 24 h: 33.7 ng/mL
[4]; human, in vivo, oral, 3 Formulation C5-12 tablets daily, three Formulation C5-12 tablets daily for 14 days, non-fasting, Day 1, N = 14, read-out: Cmax, geometric mean
  Cmax: 651 ng/mL
[4]; [12]
  Tmax: 5.1 h
  half-life: 4.6 h
[4]; human, in vivo, oral, 3 Formulation C5-12 tablets daily, three Formulation C5-12 tablets daily for 14 days, non-fasting, Day 14, N = 14, read-out: AUC24, geometric mean
  AUC: 10600 ng·h/mL
[4]; human, in vivo, oral, 3 Formulation C5-12 tablets daily, three Formulation C5-12 tablets daily for 14 days, non-fasting, Day 14, N = 14, read-out: C24, geometric mean
  concentration at 24 h: 33.7 ng/mL
[4]; human, in vivo, oral, 3 Formulation C5-12 tablets daily, three Formulation C5-12 tablets daily for 14 days, non-fasting, Day 14, N = 14, read-out: Cmax, geometric mean
  Cmax: 1640 ng/mL
[4]; three Formulation C5-12 tablets daily for 14 days, non-fasting, Day 14, N = 14
  β: 0.151 h⁻¹
[5]
  Solubility: low solubility
[6]; [13]
  half-life: 5.1 h
  AUC(0-t): 4310 ng·h/mL
  AUC(0-inf): 4330 ng·h/mL
  Tmax: 5.7 h
  concentration at 24 h: 24.5 ng/mL
  Cmax: 647 ng/mL
[6]; [14]
  half-life: 5.2 h
  AUC(0-t): 4670 ng·h/mL
  AUC(0-inf): 4690 ng·h/mL
  Tmax: 4.8 h
  concentration at 24 h: 24.3 ng/mL
  Cmax: 900 ng/mL
